The values that follow come from patent publication US7501434B2, “6-carboxy-normorphinan derivatives, synthesis and uses thereof” (Wyeth, priority 2006, dated 2009).

For series [1], the target named is μ opioid (Homo sapiens, UniProt P35372). The settings on record: from WO2006/127898 and WO2006/127899; cited from earlier work.
Series [2] in a line: Aqueous solubility. The series is classed as physicochemical. Particulars: thermodynamic from solid; pH: 2.2, water. Here is the method:
>56 mg/ml (pH: 2.2) by adding certain additive amounts of I-1 to 1 ml of water.

Series [3] is described as follows: Administration in GI-physiology altered dogs (plasma pharmacokinetics). The series is classed as in vivo. The settings on record: male, beagle, dog, po, 50 mg, single 50 mg capsule. Here is the method:
A 50 mg capsule formulation of Compound Ia was screened in gastrointestinal (GI) physiology regulated male beagle dogs. Atropine (˜20 μg/kg; IV) and pentagastrin (˜10 μg/kg; IM) were administered 15 minutes prior to formulation administration and another dose of pentagastrin (10 μg/kg; IM) was administered 30 minutes post dose. Atropine slows down canine GI motility and pentagastrin decreases pH resulting in GI conditions almost similar to that of humans. The capsules ([…]) via oral administration following an overnight fast and blood samples were drawn at 0 (predose), 0.5, 1, 2, 3, 4, 6, 8, 12, 24 and 48 hours after dosing; plasma was separated and assayed for Compound Ia content. All dogs were fed 4 hours post dose.
50 mg Compound Ia capsule contained neat 51.5 mg of Compound Ia 97% purity (50 mg of Compound Ia), filled in #AA-DB HGC Swedish orange capsule.
Bioanalytical results were received and a preliminary PK assessment was performed. Individual dog plasma Compound Ia concentration-time profiles were subjected to noncompartmental pharmacokinetic analyses (WinNonlin, Model 200). The following pharmacokinetic parameters were determined for each dog, and descriptive statistics were calculated: AUC, Cmax, and tmax.

Series [4] in a line: Partition coefficient determination (1-octanol/water). The class given is physicochemical. Particulars: pH: 2.2. Here is the method:
The partition coefficient of Compound I-1 was determined by the following method. • 1. 20.131 mg of Compound I-1 was dissolved in 2 mL of water saturated with 1-octanol. • 2. 2 mL of 1-octanol saturated with water was added to the solution from step 1. • 3. The two layers were shaken over night at room temperature. • 4. The two layers were analyzed for the concentration of Compound I-1.

For series [5], the target named is Kappa 1 (UniProt P41144). The series is classed as binding.
For series [6], the target named is Delta 2 (h) (Homo sapiens, UniProt P41143). Nature of the series: Neurotransmitter assay (radioligand binding), Delta 2 (h). The settings on record: radioligand [3H]-Naltrindole.
The target in series [7] is T1, human recombinant Mu opioid receptors (Homo sapiens, UniProt P35372).
T1 construct: expressed in transfected cells; host or cells: CHO cells
As to the kind of experiment: cell-based.

Series [8] addresses Mu (h) (Homo sapiens, UniProt P35372). The series is classed as binding.
For series [9] the following is noted: white crystalline powder from Mallinckrodt Pharmaceuticals; cited from earlier work.

The structures appear in SMILES notation.

Sequence of μ opioid (P35372 whole entry): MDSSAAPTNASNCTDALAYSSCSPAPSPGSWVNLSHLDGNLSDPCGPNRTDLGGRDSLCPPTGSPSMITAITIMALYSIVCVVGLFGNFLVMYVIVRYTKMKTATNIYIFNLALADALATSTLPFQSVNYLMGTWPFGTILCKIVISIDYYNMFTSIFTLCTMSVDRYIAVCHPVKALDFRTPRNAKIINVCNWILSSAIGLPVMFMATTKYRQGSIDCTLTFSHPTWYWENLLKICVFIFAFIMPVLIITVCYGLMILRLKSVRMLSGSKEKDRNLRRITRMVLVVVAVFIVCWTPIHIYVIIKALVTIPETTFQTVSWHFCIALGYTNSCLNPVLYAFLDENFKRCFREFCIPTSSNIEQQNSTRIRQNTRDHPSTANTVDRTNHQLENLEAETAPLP
Sequence of Mu (h) (P35372 whole entry): as above
T1 sequence (P35372 whole entry): as above
Sequence of Delta 2 (h) (P41143 whole entry): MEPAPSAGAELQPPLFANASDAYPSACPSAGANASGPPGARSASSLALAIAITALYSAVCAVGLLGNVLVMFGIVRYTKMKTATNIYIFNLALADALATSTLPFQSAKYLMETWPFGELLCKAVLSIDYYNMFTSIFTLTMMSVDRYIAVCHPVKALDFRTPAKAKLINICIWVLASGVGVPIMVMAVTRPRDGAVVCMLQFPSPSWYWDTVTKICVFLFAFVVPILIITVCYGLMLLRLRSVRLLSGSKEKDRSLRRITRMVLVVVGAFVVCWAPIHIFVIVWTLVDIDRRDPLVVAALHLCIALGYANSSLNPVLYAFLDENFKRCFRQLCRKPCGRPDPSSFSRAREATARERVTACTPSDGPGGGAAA

For the molecule `C[N@@+]1(CC2CC2)CC[C@]23c4c5ccc(O)c4O[C@H]2C(=O)CC[C@@]3(O)C1C5` [R-methylnaltrexone], the “Activity at μ opioid receptor (agonist/antagonist)” value in series [1] was “antagonist activity”.
In the case of `C[N+]1(CC2CC2)CC[C@]23c4c5ccc(O)c4O[C@H]2[C@](O)(C(=O)O)C[C@@]3(O)[C@H]1C5` (stereo partly drawn) [Compound Ia, (3R,4R,4aS,6aR,11bS)-6-carboxy-3-(cyclopropylmethyl)-4-a,6,8-trihydroxy-3-methyl-1,2,3,4,4a,5,6,6a-octahydro-4,11-methano[1]benzofuro[3′,2′:2,3]cyclopenta[1,2-c]pyridin-3-ium], the solubility (usually the dissolved amount per volume that the medium holds) in series [2] is > 56 mg/mL. In addition, the total exposure AUC(0-inf) – broadly, the area under the concentration-time curve extrapolated to infinity – was 4690 ng·h/mL in series [3] (Dog 1, PO); 7740 ng·h/mL in series [3] (Dog 2, PO); 6220 ng·h/mL in series [3] (Dog 3, PO); 6220 ng·h/mL in series [3] (Mean, N 3 dogs); 6220 ng·h/mL in series [3] (Median, N 3 dogs). Besides, the AUC(0-t) (as a rule, the area under the concentration-time curve up to a stated or last time point) is 4630 ng·h/mL in series [3] (Dog 1, PO); 7720 ng·h/mL in [3] (Dog 2, PO); 6210 ng·h/mL in series [3] (Dog 3, PO); 6190 ng·h/mL in series [3] (Mean, N 3 dogs); 6210 ng·h/mL in series [3] (Median, N 3 dogs). In addition, the Cmax (in general, the maximum level reached in the sampled fluid or tissue) in series [3] (Dog 1, PO) stood at 825 ng/mL; in series [3] (Dog 2, PO) it was 1670 ng/mL; in [3] (Dog 3, PO), 1580 ng/mL; in series [3] (Mean, N 3 dogs), 1360 ng/mL; in series [3] (Median, N 3 dogs) it was 1580 ng/mL. The time to peak (Tmax) (usually the time at which the peak concentration occurs) turned out to be 2 h in series [3] (Dog 1, PO); 3 h in series [3] (Dog 2, PO); 1 h in series [3] (Dog 3, PO); 2 h in series [3] (Mean, N 3 dogs); 2 h in series [3] (Median, N 3 dogs). Also, the half-life (in general, how long it takes for the measured level to halve) in series [3] (Dog 1, PO) was 3.9 h; in [3] (Dog 2, PO), 2.8 h; in series [3] (Dog 3, PO), 1.1 h; in [3] (Mean, N 3 dogs), 2.6 h; in series [3] (Median, N 3 dogs), 2.8 h. The log partition coefficient (logP) – broadly, the decadic logarithm of the partition coefficient of the neutral form, usually between octanol and water – in [4] was -2.15. The “Percent Inhibition (Average; N = 2)” value was determined as 82.09% in series [5], 44.47% in [6] and 81.62% in series [8]. Moreover, the IC50 (usually the midpoint of a concentration-inhibition curve) in series [7] turned out to be 170 nM.
Turning to `C[N+]1(CC2CC2)CC[C@]23c4c5ccc(O)c4O[C@H]2C(=O)CC[C@@]3(O)[C@H]1C5` (stereo partly shown) [methylnaltrexone], the Solubility in water result in series [9] is “freely soluble in water”.
Take `C[N+]1(CC2CC2)CC[C@]23c4c5ccc(O)c4O[C@H]2C(=O)CC[C@@]3(O)[C@H]1C5` (stereo partly shown) [S-methylnaltrexone]: the “Activity at μ opioid receptor (agonist/antagonist)” value in [1] is recorded as “peripheral μ opioid agonist”.
